± gives the standard deviation of the averaged measurements.
What was measured:
Test in all cases: cell viability relative to vehicle (fraction); higher = less inhibition
Conditions in all cases: 72 h
[1] = system: PR#003
Experimental: (§1)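 Primary 3q26 AML patient cells were treated for 72 h with AR-42, belinostat or entinostat (0.01-2 uM, 2-fold dilutions), in duplicate. Viability was measured by ATP-based luminescence and normalised to vehicle, given as a fraction.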

[2] = system: PR#008
Experimental: as §1

[3] = system: PR#004
Experimental: as §1

[4] = system: PR#0024
Experimental: as §1

[5] = system: PR#0023
Experimental: as §1

[6] = system: PR#007
Experimental: as §1

[7] = system: PR#002
Experimental: as §1

[8] = system: PR#005
Experimental: as §1

[9] = system: PR#006
Experimental: as §1

CC(C)[C@H](C(=O)Nc1ccc(C(=O)NO)cc1)c1ccccc1 [AR-42]
cell viability
Conditions | [1] | [2] | [3] | [4] | [5] | [6] | [7] | [8] | [9]
0.016 µM | 1.01 ± 0.037 | 0.553 ± 0.13 | 0.809 ± 0.13 | 0.953 ± 0.032 | 0.955 ± 0.074 | 0.988 ± 0.034 | 1 ± 0.1 | 0.962 ± 0.41 | 0.936 ± 0.11
0.031 µM | 0.853 ± 0.069 | 0.434 ± 0.019 | 0.646 ± 0.061 | 0.81 ± 0.024 | 0.984 ± 0.082 | 1.0115 ± 0.00017 | 0.938 ± 0.15 | 0.977 ± 0.38 | 0.904 ± 0.038
0.0625 µM | 0.797 ± 0.07 | 0.3 ± 0.019 | 0.417 ± 0.02 | 0.67 ± 0.041 | 0.675 ± 0.17 | 1.01 ± 0.033 | 0.855 ± 0.12 | 0.833 ± 0.34 | 0.902 ± 0.042
0.125 µM | 0.503 ± 0.013 | 0.199 ± 0.022 | 0.248 ± 0.004 | 0.4575 ± 0.0044 | 0.785 ± 0.082 | 0.872 ± 0.051 | 0.792 ± 0.025 | 0.991 ± 0.28 | 0.552 ± 0.032
0.25 µM | 0.247 ± 0.021 | 0.0865 ± 0.0096 | 0.132 ± 0.0094 | 0.259 ± 0.02 | 0.441 ± 0.27 | 0.748 ± 0.031 | 0.508 ± 0.034 | 0.928 ± 0.056 | 0.367 ± 0.041
0.5 µM | 0.0952 ± 0.013 | 0.0168 ± 0.00084 | 0.0759 ± 0.001 | 0.127 ± 0.0071 | 0.4779 ± 0.0025 | 0.443 ± 0.0055 | 0.124 ± 0.0084 | 0.239 ± 0.01 | 0.104 ± 0.016
1 µM | 0.0399 ± 0.0043 | 0.0142 ± 0.00051 | 0.0688 ± 0.0021 | 0.0553 ± 0.0038 | 0.116 ± 0.0047 | 0.155 ± 0.0046 | 0.0233 ± 0.00057 | 0.0777 ± 0.009 | 0.0486 ± 0.0015
2 µM | 0.0313 ± 0.0015 | 0.016 ± 0.00068 | 0.0591 ± 0.0037 | 0.0347 ± 0.00063 | 0.0583 ± 0.0041 | 0.0706 ± 0.002 | 0.01971 ± 9.6e-05 | 0.0322 ± 0.0007 | 0.0395 ± 0.0067

O=C(/C=C/c1cccc(S(=O)(=O)Nc2ccccc2)c1)NO [Belinostat]
cell viability
Conditions | [1] | [2] | [3] | [4] | [5] | [6] | [7] | [8] | [9]
0.016 µM | 1.12 ± 0.035 | 0.643 ± 0.032 | 0.978 ± 0.14 | 0.97 ± 0.059 | 0.933 ± 0.01 | 0.981 ± 0.018 | 1.22 ± 0.37 | 0.798 ± 0.076 | 1.048 ± 0.0093
0.031 µM | 1.12 ± 0.04 | 0.642 ± 0.051 | 0.967 ± 0.043 | 0.882 ± 0.066 | 0.917 ± 0.043 | 0.961 ± 0.012 | 1.08 ± 0.21 | 0.698 ± 0.033 | 0.987 ± 0.09
0.0625 µM | 0.9713 ± 0.0041 | 0.468 ± 0.0074 | 0.7834 ± 0.0059 | 0.77 ± 0.027 | 0.893 ± 0.02 | 0.897 ± 0.027 | 1.01 ± 0.2 | 0.979 ± 0.49 | 0.941 ± 0.014
0.125 µM | 0.874 ± 0.043 | 0.391 ± 0.016 | 0.577 ± 0.021 | 0.609 ± 0.014 | 0.8339 ± 0.00086 | 0.854 ± 0.02 | 1.01 ± 0.087 | 0.871 ± 0.34 | 0.729 ± 0.032
0.25 µM | 0.562 ± 0.055 | 0.247 ± 0.069 | 0.326 ± 0.023 | 0.363 ± 0.013 | 0.777 ± 0.011 | 0.717 ± 0.084 | 0.902 ± 0.072 | 0.524 ± 0.082 | 0.481 ± 0.042
0.5 µM | 0.3 ± 0.019 | 0.0828 ± 0.00094 | 0.125 ± 0.007 | 0.184 ± 0.013 | 0.611 ± 0.02 | 0.4339 ± 0.0043 | 0.492 ± 0.012 | 0.404 ± 0.067 | 0.177 ± 0.016
1 µM | 0.0978 ± 0.0068 | 0.0197 ± 0.00079 | 0.0685 ± 0.006 | 0.0781 ± 0.0048 | 0.325 ± 0.017 | 0.173 ± 0.028 | 0.114 ± 0.003 | 0.108 ± 0.031 | 0.0585 ± 0.0093
2 µM | 0.0452 ± 0.0024 | 0.0115 ± 0.002 | 0.0602 ± 0.0023 | 0.0477 ± 0.0022 | 0.0655 ± 0.0071 | 0.0759 ± 0.0039 | 0.0243 ± 0.0013 | 0.0361 ± 0.001 | 0.035 ± 0.0027

Nc1ccccc1NC(=O)c1ccc(CNC(=O)OCc2cccnc2)cc1 [Entinostat]
cell viability
Conditions | [1] | [2] | [3] | [4] | [5] | [6] | [7] | [8] | [9]
0.016 µM | 0.949 ± 0.045 | 0.764 ± 0.033 | 0.78 ± 0.048 | 1.08 ± 0.19 | 0.932 ± 0.053 | 0.934 ± 0.034 | 1.02 ± 0.23 | 1.04 ± 0.43 | 0.961 ± 0.19
0.031 µM | 1 ± 0.2 | 0.691 ± 0.045 | 0.673 ± 0.033 | 1.02 ± 0.15 | 0.923 ± 0.025 | 0.903 ± 0.027 | 0.94 ± 0.23 | 0.625 ± 0.034 | 0.813 ± 0.077
0.0625 µM | 0.91 ± 0.12 | 0.49 ± 0.092 | 0.472 ± 0.04 | 0.924 ± 0.045 | 0.806 ± 0.019 | 0.938 ± 0.037 | 0.869 ± 0.2 | 0.534 ± 0.033 | 0.731 ± 0.026
0.125 µM | 0.735 ± 0.024 | 0.303 ± 0.0084 | 0.298 ± 0.0035 | 0.827 ± 0.051 | 0.7626 ± 0.002 | 0.918 ± 0.019 | 0.736 ± 0.13 | 0.437 ± 0.019 | 0.555 ± 0.054
0.25 µM | 0.536 ± 0.013 | 0.186 ± 0.029 | 0.183 ± 0.033 | 0.682 ± 0.041 | 0.6886 ± 0.0064 | 0.778 ± 0.016 | 0.593 ± 0.013 | 0.475 ± 0.22 | 0.434 ± 0.076
0.5 µM | 0.281 ± 0.052 | 0.0771 ± 0.0027 | 0.1099 ± 0.00028 | 0.516 ± 0.017 | 0.589 ± 0.034 | 0.666 ± 0.048 | 0.396 ± 0.055 | 0.203 ± 0.043 | 0.2018 ± 0.00028
1 µM | 0.115 ± 0.018 | 0.0229 ± 0.0033 | 0.0717 ± 0.01 | 0.285 ± 0.017 | 0.423 ± 0.041 | 0.345 ± 0.0048 | 0.0907 ± 0.026 | 0.06904 ± 0.00018 | 0.115 ± 0.017
2 µM | 0.0591 ± 0.0028 | 0.00956 ± 0.0026 | 0.0662 | 0.14 ± 0.0072 | 0.183 ± 0.029 | 0.168 ± 0.0027 | 0.0309 ± 0.00074 | 0.0415 ± 0.0016 | 0.065 ± 0.0079

Source: the supplement of paper PMC11150407
